{
  "source": "patent US10105372B2",
  "about": "“Methods of treating obesity using antioxidant inflammation modulators” (REATA PHARMACEUTICALS, INC., priority 2010, dated 2018)",
  "assay_type_in_all_cases": "in vivo, human",
  "key": {"[1]": {"assay": "Phase 2 clinical trial, renal function, glycemic control, circulating endothelial cells", "source_text": "See U.S. Patent Application Publication 2009/0326063A1, which is incorporated by reference herein in its entirety. […] In this study, the protocol stipulated that patient weights were to be taken at baseline (D−1=1 day before initiation of dosing), Day 28, and Day 56. Weight data were available for all but one patient who started the study (a baseline weight was not recorded for this patient). In the remaining patients, 14 of 17 had lost weight at Day 28 (mean weight loss was 1.6% of baseline weight) and 17 of 17 had lost weight at Day 56 (mean weight loss was 3.7% of baseline, with a median of 3.1%). […] Prior to initiation of treatment, basic clinical observations (e.g., weight, blood pressure, height) were recorded along with baseline values for serum creatinine, blood urea nitrogen, serum phosphorus, serum uric acid, angiotensin II, fasting glucose, hemoglobin A1c, circulating endothelial cells (CECs), and iNOS-positive CECs. […] Reductions of more than 10% were also observed in BUN, serum creatinine, uric acid, and urinary albumin creatinine ratio."}, "[2]": {"assay": "Phase 2 clinical trial, patient body weight and tolerability", "description": "See Example 1, below. […] In this study, the protocol stipulated that patient weights were to be taken at baseline (D−1=1 day before initiation of dosing), Day 28, and Day 56. […] In this study, the protocol stipulated that patient weights were to be taken at baseline (D−1=1 day before initiation of dosing), Day 28, and Day 56. […] Prior to initiation of treatment, basic clinical observations (e.g., weight, blood pressure, height) were recorded along with baseline values for serum creatinine, blood urea nitrogen, serum phosphorus, serum uric acid, angiotensin II, fasting glucose, hemoglobin A1c, circulating endothelial cells (CECs), and iNOS-positive CECs."}, "[3]": {"assay": "Phase 2b/3 trial, estimated GFR and CKD stage", "conditions": "for patients with improvement in CKD stage: Stage 4 to 3b or 3b to 3a; for Change from baseline eGFR, mean ± SE: longitudinal model", "description": "Weight measurements were included in the study as a basic clinical parameter. […] Screening estimated GFR was calculated as the mean of two estimated GFR results (differing no more than 25%) collected at least 5 days apart within a 3-week period. […] Exclusion criteria included type 1 diabetes, non-diabetic kidney disease, hemoglobin A1c>10%, QTc […] interval >450 milliseconds, evidence of hepatic dysfunction, and recent cardiovascular disease. […] Study drug was taken orally once daily in the morning one hour prior to food intake. Dose titration occurred as follows: (1) placebo; (2) 25 mg; (3) 25 mg, increased to 75 mg after 4 weeks; and (4) 25 mg, increased to 75 mg after 4 weeks, further increased to 150 mg after an additional 4 weeks. Randomization was stratified by CKD stage (3b versus 4), urinary albumin to creatinine ratio (ACR; ≤ versus >300 mg/g), and glucose control (hemoglobin A1c< versus ≥7%). An independent Data Safety Monitoring Board monitored patient safety. Estimated GFR and routine safety laboratory testing was done at screening and every four weeks thereafter using a central laboratory. Adverse events and clinical laboratory parameters were assessed at each visit. Analysis of the primary outcome, change from baseline estimated GFR at Week 24, occurred after all randomized patients completed Week 24 or previously discontinued study. Exploratory outcomes included change from baseline at Week 24 in serum creatinine, blood urea nitrogen, serum phosphorus, uric acid, ACR, hemoglobin A1c, and intact parathyroid hormone."}, "[4]": {"conditions": "Stratum 2, All Patients (n = 18), change"}, "[5]": {"conditions": "Week 24, all bardoxolone methyl patients"}},
  "note": "“And” between values parts separate entries of the source, which are not always exact repeats. Equal entries are not always repeated. Marks after values point to notes of the source that are not given here.",
  "data": [
    {"smiles": "COC(=O)[C@]12CCC(C)(C)C[C@H]1[C@H]1C(=O)C=C3[C@@]4(C)C=C(C#N)C(=O)C(C)(C)[C@@H]4CC[C@@]3(C)[C@]1(C)CC2", "note": "[bardoxolone methyl]", "values": [
      {"measurement": "CECs", "setting": "[1]; Phase 2 study", "value": "Significant reductions"},
      {"measurement": "iNOS-positive CECs", "setting": "[1]; Phase 2 study", "value": "Significant reductions"},
      {"measurement": "reduction in BUN", "setting": "[1]; Phase 2 study", "value": "more than 10%"},
      {"measurement": "reduction in serum creatinine", "setting": "[1]; Phase 2 study", "value": "more than 10%"},
      {"measurement": "reduction in uric acid", "setting": "[1]; Phase 2 study", "value": "more than 10%"},
      {"measurement": "Patients with eGFR Increase", "setting": "[1]; Stratum 2, All Patients (n = 18)", "value": 89, "unit": "%"},
      {"measurement": "Blood Urea Nitrogen", "setting": "[1]; [4]", "value": "−14.9", "unit": "%"},
      {"measurement": "Circulating Endothelial Cells", "setting": "[1]; [4]", "value": "−34.8", "unit": "%^†"},
      {"measurement": "Creatinine Clearance", "setting": "[1]; [4]", "value": "+38.2%^†"},
      {"measurement": "Phosphorus", "setting": "[1]; [4]", "value": "−2.5", "unit": "%"},
      {"measurement": "Serum Creatinine", "setting": "[1]; [4]", "value": "−17.5", "unit": "%**"},
      {"measurement": "Uric Acid", "setting": "[1]; [4]", "value": "−13.3", "unit": "%^†"},
      {"measurement": "eGFR", "setting": "[1]; [4]", "value": "+24.1%***"},
      {"measurement": "iNOS+ Circulating Endothelial Cells", "setting": "[1]; [4]", "value": "−65.8", "unit": "%*"},
      {"measurement": "Hemoglobin A1c", "setting": "[1]; Stratum 2, patients with BL ≥ 7.0%, change", "value": "−0.1", "unit": "%"},
      {"measurement": "eGFR increase", "setting": "[1]; after 28 days of treatment", "value": "approximately 10%"},
      {"measurement": "eGFR increase compared to baseline", "setting": "[1]; after 56 days of treatment", "value": "more than 20%"},
      {"measurement": "mean weight loss", "setting": "[2]; Day 28", "value": "1.6 % of baseline weight"},
      {"measurement": "patients who had lost weight at Day 28", "setting": "[2]; Day 28, 25 mg once per day", "value": "14 of 17"},
      {"measurement": "mean weight loss", "setting": "[2]; Day 56", "value": "3.7 % of baseline"},
      {"measurement": "median weight loss", "setting": "[2]; Day 56, of baseline", "value": 3.1, "unit": "%"},
      {"measurement": "patients who had lost weight at Day 56", "setting": "[2]; Day 56, 25 mg/day 28 days then 75 mg/day 28 days", "value": "17 of 17"},
      {"measurement": "patients who lost more than 2% of their baseline weight", "setting": "[2]; between Day −1 and Day 56", "value": "all but three"},
      {"measurement": "Weight D28", "setting": "[2]; individual CKD/Type 2 diabetes patients, Day 28, 25 mg once per day oral", "value": "80.7 kg and 75.7 kg and 108.9 kg (2×) and 80.3 kg and 112.9 kg and 78.9 kg and 88.5 kg and 104.3 kg and 169.3 kg and 52.6 kg and 83.5 kg and 159.7 kg and 114 kg and 92.1 kg and 89.9 kg and 88.0 kg"},
      {"measurement": "Percent Change D28/D-1 (weight)", "setting": "[2]; individual patients, Day 28 vs baseline, 25 mg/day", "value": "0.0% (2×) and −0.7% and −2.4% (2×) and −1.6% and −3.5% and −1.2% and −8.5% and −1.4% and −0.1% and −12.8% and −0.5% and 0.3% and −0.3% and −1.0% and −3.0%"},
      {"measurement": "Weight D56", "setting": "[2]; individual patients, Day 56, 25 mg/day 28 days then escalated to 75 mg/day 28 days", "value": "75.7 kg and 74.4 kg and 107.0 kg and 78.5 kg and 97.1 kg and 108.0 kg and 111.1 kg and 77.1 kg and 88 kg and 102.1 kg and 165.9 kg and 52.2 kg and 80.3 kg and 157.9 kg and 110.4 kg and 87.1 kg"},
      {"measurement": "Weight D56", "setting": "[2]; individual patients, Day 56, start dose 25 mg, escalated dose N/A", "value": "91.6 kg and 87.4 kg"},
      {"measurement": "Percent Change D56/D-1 (weight)", "setting": "[2]; individual patients, Day 56 vs baseline, 25 mg/day then escalated to 75 mg/day", "value": "−6.2% and −2.4% and −4.1% and −3.8% and −6.9% and −3.2% and −2.8% and −10.6% and −2.0% and −2.1% and −13.4% and −4.3% and −0.8% and −3.5% and −1.0%"},
      {"measurement": "Percent Change D56/D-1 (weight)", "setting": "[2]; individual patients, Day 56 vs baseline, start dose 25 mg, escalated dose N/A", "value": "−1.5% and −5.7%"},
      {"measurement": "Weight D28, Mean", "setting": "[2]; mean of all patients, Day 28", "value": 99.4, "unit": "kg"},
      {"measurement": "Percent Change D28/D-1 (weight), Mean", "setting": "[2]; mean of all patients, Day 28 vs baseline", "value": "−1.6", "unit": "%"},
      {"measurement": "Weight D56, Mean", "setting": "[2]; mean of all patients, Day 56", "value": 97.3, "unit": "kg"},
      {"measurement": "Percent Change D56/D-1 (weight), Mean", "setting": "[2]; mean of all patients, Day 56 vs baseline", "value": "−3.7", "unit": "%"},
      {"measurement": "tolerability", "setting": "[2]; patients with Type 2 diabetes and CKD, 56 days", "value": "very well tolerated"},
      {"measurement": "patients with improvement in CKD stage", "setting": "[3]; 25 mg group", "value": 53, "unit": "%"},
      {"measurement": "patients with improvement in CKD stage", "setting": "[3]; 75 mg group", "value": 69, "unit": "%"},
      {"measurement": "patients with improvement in CKD stage", "setting": "[3]; 150 mg group", "value": 61, "unit": "%"},
      {"measurement": "estimated GFR, mean increases compared to placebo", "setting": "[3]; Week 24, 25 mg group", "value": "8.3±1.1", "unit": "mL/min/1.73 m^2"},
      {"measurement": "Change from baseline eGFR, difference between bardoxolone methyl and placebo, mean ± SE", "setting": "[3]; Week 24, 25 mg vs placebo", "value": "8.2 ± 1.5", "unit": "mL/min/1.73 m^2"},
      {"measurement": "Change from baseline eGFR, mean ± SE", "setting": "[3]; Week 24, 25 mg", "value": "8.3 ± 1.1", "unit": "mL/min/1.73 m^2"},
      {"measurement": "estimated GFR, mean increases compared to placebo", "setting": "[3]; Week 24, 75 mg group", "value": "11.5±1.1", "unit": "mL/min/1.73 m^2"},
      {"measurement": "Change from baseline eGFR, difference between bardoxolone methyl and placebo, mean ± SE", "setting": "[3]; Week 24, 75 mg vs placebo", "value": "11.4 ± 1.5", "unit": "mL/min/1.73 m^2"},
      {"measurement": "Change from baseline eGFR, mean ± SE", "setting": "[3]; Week 24, 75 mg", "value": "11.5 ± 1.1", "unit": "mL/min/1.73 m^2"},
      {"measurement": "estimated GFR, mean increases compared to placebo", "setting": "[3]; Week 24, 150 mg group", "value": "10.6±1.1", "unit": "mL/min/1.73 m^2"},
      {"measurement": "Change from baseline eGFR, difference between bardoxolone methyl and placebo, mean ± SE", "setting": "[3]; Week 24, 150 mg vs placebo", "value": "10.5 ± 1.5", "unit": "mL/min/1.73 m^2"},
      {"measurement": "Change from baseline eGFR, mean ± SE", "setting": "[3]; Week 24, 150 mg", "value": "10.6 ± 1.1", "unit": "mL/min/1.73 m^2"},
      {"measurement": "patients with more than a 10% increase in estimated GFR", "setting": "[3]; [5]", "value": 74, "unit": "%"},
      {"measurement": "patients with more than a 50% increase in estimated GFR", "setting": "[3]; [5]", "value": 24, "unit": "%"},
      {"measurement": "Change from baseline eGFR, difference between bardoxolone methyl and placebo, mean ± SE", "setting": "[3]; Week 24, combined vs placebo", "value": "10.0 ± 1.3", "unit": "mL/min/1.73 m^2"},
      {"measurement": "time from treatment initiation to observed increases in estimated GFR", "setting": "[3]; bardoxolone methyl groups", "value": "≤ 4", "unit": "weeks"},
      {"measurement": "time of peak increase in estimated GFR", "setting": "[3]; bardoxolone methyl groups, stable through Week 24", "value": 12, "unit": "Week"},
      {"measurement": "patients with worsening of CKD stage", "setting": "[3]; each bardoxolone methyl group (2 patients)", "value": 4, "unit": "%"}
    ]}
  ]
}
